{"source": "patent US20160213003A1", "about": "“APPLICATION OF POLYOXOMETALATE IN PREPARATION OF DISINFECTANT FOR STERILIZING AND REMOVING FORMALDEHYDE” (NINGBO YUCHEN ENVIROCLEAN TECH CO., LTD., priority 2013, published 2016)", "system": "Staphylococcus aureus", "assay": "Kirby-Bauer diffusion detection of sterilizing capability (inhibition zone diameter)", "assay_type": "cell-based", "conditions": "for sterilization effect without oxygen ventilation (diameter, mm): pH 10, no oxygen ventilation", "protocol": "In catalyst screening, Staphylococcus aureus was used as the microorganisms, and a trypsin soybean agar was used as a culture medium. The material powder to be screened was prepared into a homogeneous mixture solution by pure water in a 3% weight/volume ratio (i.e., 3 g powder/100 mL water), then immersed with a neutral precise filtration filter paper of 5 mm diameter for about 10 seconds, then placed into a Kirby-Bauer diffusion detection plate. A Kirby-Bauer diffusion detection plate was placed in a sealed glass cover, and the air was provided into the glass cover at a speed of about 10 liters per minute. The sterilizing capability of the catalyst was measured by the diameter of the zone without bacterial growth around the filter paper. A variety of polyoxometalates were respectively prepared into a water solution with a 3% mass concentration, and pH was controlled to 10. The sterilizing capability was also detected by Kirby-Bauer diffusion detection method in which Staphylococcus aureus was used as the microorganisms, respectively including no oxygen ventilation and oxygen ventilation. When oxygen was ventilated, the condition for oxygen ventilation was the same, the temperature was room temperature (25° C.) and 37° C. […] Potassium polytungstate (K3[PW12O40]) was respectively prepared into water solutions with mass concentration of 0.5%, 1.0%, 2.0%, 3%, 5%, 10%, and 15%, and the pH were controlled to 10. The sterilizing capability was also detected by Kirby-Bauer diffusion detection method in which Staphylococcus aureus was used as the microorganisms, the condition for oxygen ventilation was the same, and the temperature was room temperature (25° C.) and 37° C. […] Potassium polytungstate (K3[PW12O40]) was respectively prepared into water solutions with a concentration of 3% and pH of 6, 7, 8, 8.5, 9, 9.5, 10, 10.5, 11, 11.5, 12. The sterilizing capability was also detected by Kirby-Bauer diffusion detection method in which Staphylococcus aureus was used as the microorganisms, the condition for oxygen ventilation was the same, and the temperature was room temperature (25° C.) and 37° C.", "key": {"[1]": {"conditions": "3% water solution, pH 10, oxygen ventilation, 25° C."}, "[2]": {"conditions": "3% water solution, pH 10, oxygen ventilation, 37° C."}}, "data": [{"substance": "Na3[PW12O40]", "values": [{"measurement": "sterilization effect without oxygen ventilation (diameter, mm)", "setting": "3% water solution", "value": 3, "unit": "mm"}, {"measurement": "sterilization effect at 25° C. (diameter, mm)", "setting": "[1]", "value": 19, "unit": "mm"}, {"measurement": "sterilization effect at 37° C. (diameter, mm)", "setting": "[2]", "value": 18, "unit": "mm"}]}, {"substance": "Potassium polytungstate [K3[PW12O40]]", "values": [{"measurement": "sterilization effect at 25° C. (diameter, mm)", "setting": "3% water solution, pH 6, oxygen ventilation, 25° C.", "value": 5, "unit": "mm"}, {"measurement": "sterilization effect at 37° C. (diameter, mm)", "setting": "3% water solution, pH 6, oxygen ventilation, 37° C.", "value": 6, "unit": "mm"}, {"measurement": "sterilization effect at 25° C. (diameter, mm)", "setting": "3% water solution, pH 7, oxygen ventilation, 25° C.", "value": 6, "unit": "mm"}, {"measurement": "sterilization effect at 37° C. (diameter, mm)", "setting": "3% water solution, pH 7, oxygen ventilation, 37° C.", "value": 8, "unit": "mm"}, {"measurement": "sterilization effect at 25° C. (diameter, mm)", "setting": "3% water solution, pH 8, oxygen ventilation, 25° C.", "value": 8, "unit": "mm"}, {"measurement": "sterilization effect at 37° C. (diameter, mm)", "setting": "3% water solution, pH 8, oxygen ventilation, 37° C.", "value": 11, "unit": "mm"}, {"measurement": "sterilization effect at 25° C. (diameter, mm)", "setting": "3% water solution, pH 8.5, oxygen ventilation, 25° C.", "value": 14, "unit": "mm"}, {"measurement": "sterilization effect at 37° C. (diameter, mm)", "setting": "3% water solution, pH 8.5, oxygen ventilation, 37° C.", "value": 15, "unit": "mm"}, {"measurement": "sterilization effect at 25° C. (diameter, mm)", "setting": "3% water solution, pH 9, oxygen ventilation, 25° C.", "value": 17, "unit": "mm"}, {"measurement": "sterilization effect at 37° C. (diameter, mm)", "setting": "3% water solution, pH 9, oxygen ventilation, 37° C.", "value": 18, "unit": "mm"}, {"measurement": "sterilization effect at 25° C. (diameter, mm)", "setting": "3% water solution, pH 9.5, oxygen ventilation, 25° C.", "value": 20, "unit": "mm"}, {"measurement": "sterilization effect at 37° C. (diameter, mm)", "setting": "3% water solution, pH 9.5, oxygen ventilation, 37° C.", "value": 19, "unit": "mm"}, {"measurement": "sterilization effect without oxygen ventilation (diameter, mm)", "setting": "3% water solution", "value": 3, "unit": "mm"}, {"measurement": "sterilization effect at 25° C. (diameter, mm)", "setting": "[1]", "value": 19, "unit": "mm"}, {"measurement": "sterilization effect at 25° C. (diameter, mm)", "setting": "3% water solution, pH 10, oxygen ventilation, 25° C. (pH series)", "value": 19, "unit": "mm"}, {"measurement": "sterilization effect at 37° C. (diameter, mm)", "setting": "[2]", "value": 19, "unit": "mm"}, {"measurement": "sterilization effect at 37° C. (diameter, mm)", "setting": "3% water solution, pH 10, oxygen ventilation, 37° C. (pH series)", "value": 19, "unit": "mm"}, {"measurement": "sterilization effect at 25° C. (diameter, mm)", "setting": "3% water solution, pH 10.5, oxygen ventilation, 25° C.", "value": 18, "unit": "mm"}, {"measurement": "sterilization effect at 37° C. (diameter, mm)", "setting": "3% water solution, pH 10.5, oxygen ventilation, 37° C.", "value": 19, "unit": "mm"}, {"measurement": "sterilization effect at 25° C. (diameter, mm)", "setting": "3% water solution, pH 11, oxygen ventilation, 25° C.", "value": 20, "unit": "mm"}, {"measurement": "sterilization effect at 37° C. (diameter, mm)", "setting": "3% water solution, pH 11, oxygen ventilation, 37° C.", "value": 20, "unit": "mm"}, {"measurement": "sterilization effect at 25° C. (diameter, mm)", "setting": "3% water solution, pH 11.5, oxygen ventilation, 25° C.", "value": 20, "unit": "mm"}, {"measurement": "sterilization effect at 37° C. (diameter, mm)", "setting": "3% water solution, pH 11.5, oxygen ventilation, 37° C.", "value": 20, "unit": "mm"}, {"measurement": "sterilization effect at 25° C. (diameter, mm)", "setting": "3% water solution, pH 12, oxygen ventilation, 25° C.", "value": 20, "unit": "mm"}, {"measurement": "sterilization effect at 37° C. (diameter, mm)", "setting": "3% water solution, pH 12, oxygen ventilation, 37° C.", "value": 20, "unit": "mm"}, {"measurement": "sterilization effect at 25° C. (diameter, mm)", "setting": "concentration 0.5%, pH 10, oxygen ventilation, 25° C.", "value": 8, "unit": "mm"}, {"measurement": "sterilization effect at 37° C. (diameter, mm)", "setting": "concentration 0.5%, pH 10, oxygen ventilation, 37° C.", "value": 9, "unit": "mm"}, {"measurement": "sterilization effect at 25° C. (diameter, mm)", "setting": "concentration 1.0%, pH 10, oxygen ventilation, 25° C.", "value": 11, "unit": "mm"}, {"measurement": "sterilization effect at 37° C. (diameter, mm)", "setting": "concentration 1.0%, pH 10, oxygen ventilation, 37° C.", "value": 10, "unit": "mm"}, {"measurement": "sterilization effect at 25° C. (diameter, mm)", "setting": "concentration 2.0%, pH 10, oxygen ventilation, 25° C.", "value": 14, "unit": "mm"}, {"measurement": "sterilization effect at 37° C. (diameter, mm)", "setting": "concentration 2.0%, pH 10, oxygen ventilation, 37° C.", "value": 16, "unit": "mm"}, {"measurement": "sterilization effect at 25° C. (diameter, mm)", "setting": "concentration 3.0%, pH 10, oxygen ventilation, 25° C.", "value": 16, "unit": "mm"}, {"measurement": "sterilization effect at 37° C. (diameter, mm)", "setting": "concentration 3.0%, pH 10, oxygen ventilation, 37° C.", "value": 18, "unit": "mm"}, {"measurement": "sterilization effect at 25° C. (diameter, mm)", "setting": "concentration 5%, pH 10, oxygen ventilation, 25° C.", "value": 18, "unit": "mm"}, {"measurement": "sterilization effect at 37° C. (diameter, mm)", "setting": "concentration 5%, pH 10, oxygen ventilation, 37° C.", "value": 19, "unit": "mm"}, {"measurement": "sterilization effect at 25° C. (diameter, mm)", "setting": "concentration 10%, pH 10, oxygen ventilation, 25° C.", "value": 20, "unit": "mm"}, {"measurement": "sterilization effect at 37° C. (diameter, mm)", "setting": "concentration 10%, pH 10, oxygen ventilation, 37° C.", "value": 20, "unit": "mm"}, {"measurement": "sterilization effect at 25° C. (diameter, mm)", "setting": "concentration 15%, pH 10, oxygen ventilation, 25° C.", "value": 19, "unit": "mm"}, {"measurement": "sterilization effect at 37° C. (diameter, mm)", "setting": "concentration 15%, pH 10, oxygen ventilation, 37° C.", "value": 18, "unit": "mm"}]}]}
